In US20210196714A1, “COMPOSITIONS AND METHODS FOR TREATING DISORDERS CHARACTERIZED WITH ABERRANT RAS/MAPK SIGNALING” (Duke University, priority 2018, published 2021):

How the values were obtained:
morphant KS embryos = conditions: Bogershausen et al. 2015; cited from earlier work
[1] = tested on: zebrafish kmt2d morphants; experiment: Rescue of convergent-extension (CE) phenotype in kmt2d morphants; assay type: in vivo

SMILES | rescue of CE-driven phenotypes (morphant KS embryos) | amelioration of CE defects over serial dilutions ([1]; 1 nM to 1 μM, 8-10 somite stage) | CE defects at 50 nM and 100 nM doses ([1]; dose response, 50 and 100 nM)
O=C(NOCC1CC1)c1cc(Br)c(F)c(F)c1Nc1ccc(I)cc1Cl [PD184161] | phenocopy this rescue | – | –
CC(C)(C)c1nc(-c2cccc(NS(=O)(=O)c3c(F)cccc3F)c2F)c(-c2ccnc(N)n2)s1 [Dabrafenib, reference compound] | – | did not result in significant amelioration | marginal improvements
